Source: patent US20230234967A1, “Fused Azole Heterocycles as AHR Antagonists” (Senda Biosciences, Inc., priority 2021, published 2023)

Experiments:
AHR = target: T1, AHR (Homo sapiens, UniProt P35869); test: DRE-Luciferase Reporter Assay (HepG2 AhR-Lucia reporter cells); type: cell-based; details: AHR activating ligand at its EC50, luciferase read-out, read-out: HEPG2 Luc IC50
T1 construct: other cell line with a DRE-luciferase reporter stably transfected; endogenous in cells; host or cells: Human HepG2 liver carcinoma AhR-Lucia reporter cells
T1 sequence (P35869 11-848): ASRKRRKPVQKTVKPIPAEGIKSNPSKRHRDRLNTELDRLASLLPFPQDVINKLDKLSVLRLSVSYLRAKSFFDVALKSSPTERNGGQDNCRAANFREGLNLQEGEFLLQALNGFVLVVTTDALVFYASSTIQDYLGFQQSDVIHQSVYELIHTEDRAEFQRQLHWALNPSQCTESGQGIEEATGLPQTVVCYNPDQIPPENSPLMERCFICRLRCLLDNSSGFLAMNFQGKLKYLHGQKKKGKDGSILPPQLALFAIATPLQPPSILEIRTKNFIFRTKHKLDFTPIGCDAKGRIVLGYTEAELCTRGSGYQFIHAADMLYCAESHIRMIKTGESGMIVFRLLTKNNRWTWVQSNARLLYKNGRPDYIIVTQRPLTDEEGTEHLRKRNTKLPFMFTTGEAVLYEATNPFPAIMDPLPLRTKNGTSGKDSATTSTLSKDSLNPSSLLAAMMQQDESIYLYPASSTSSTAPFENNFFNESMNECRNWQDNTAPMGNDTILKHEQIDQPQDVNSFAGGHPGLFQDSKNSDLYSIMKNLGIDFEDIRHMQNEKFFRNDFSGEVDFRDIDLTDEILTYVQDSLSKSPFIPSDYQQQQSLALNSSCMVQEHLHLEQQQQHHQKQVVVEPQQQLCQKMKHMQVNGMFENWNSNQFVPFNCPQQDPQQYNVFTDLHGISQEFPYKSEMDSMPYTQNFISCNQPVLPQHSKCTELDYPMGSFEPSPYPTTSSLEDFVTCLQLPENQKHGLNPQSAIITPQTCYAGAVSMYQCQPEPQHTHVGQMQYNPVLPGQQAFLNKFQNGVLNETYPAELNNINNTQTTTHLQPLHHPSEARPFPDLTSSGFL
Source text: Example 27: DRE-Luciferase Reporter Assay
AHR binds to Dioxin Responsive Elements (DRE) upstream of genes that it activates. One measure of AHR activity is activation of a reporter gene, such as luciferase, downstream of one or multiple DRE elements. Luciferase activity will reflect activation and inhibition of AHR in the cells expressing his reporter. 20000 Human HepG2 liver carcinoma—AhR-Lucia reporter cells or Human HT29 colon adenocarcinoma—AhR reporter cells or other cell line with a DRE-luciferase reporter stably transfected were plated in Eagle's Minimal Essential Medium, 10% heat-inactivated FBS, 1×non-essential amino acids Pen-Strep (10,000 U/mL) and Normocin (100 ug/mL) in plates (96-well, 384-well or other plates) and incubated overnight at 37° C. in a CO2 incubator and treated with and without AhR antagonists at a log dilution starting at 100 uM.
After 1 hr that cells were plated an AHR activating ligand, such as TCDD, kynurenine, ITE (2-(1H-indole-3-ylcarbonyl)-4-thiazolecarboxylic methyl ester), VAF347, BNF (beta-naphthoflavone), FICZ (6-formylindolo(3,2-b) carbazole) or other AHR ligands at their specific EC50 concentration, were added to the cells with or without AHR antagonist.
Cells were incubated for 24 or 48 hours or another time point and then, supernatant was analyzed for determination of luciferase activity as a read-out of the AHR activation or inhibition. Luciferase was measured with the commercial kit QUANTI-Luc™ assay solution kit from Invivogen following the manufacturer's instructions.
The level of luciferase with only agonist ligand added was the maximum signal while the luciferase with […] was the minimum signal. IC50 values were determined as the concentration which inhibits half of the luciferase activity. “A” indicates an IC50 value less than 100 nM, “B” indicates an IC50 between 100 and 500 nM, “C” indicates an IC50 above 500 nM.

[1] = Hepatocyte Stability Assay, rat hepatocytes; type: in vitro ADME; details: cryopreserved rat hepatocytes, read-out: Rat hepatocyte clearance
Method: Example 32: Hepatocyte Stability Assay
Preparation of working solutions: 10 mM stock solutions of test compound and positive control were prepared in DMSO. In separate conical tubes, the 10 mM solution of test compound and the positive control were diluted to 100 μM by combining 198 μL of 50% acetonitrile/50% water and 2 μL of 10 mM stock.
Preparation of Hepatocytes: Incubation medium (William's E Medium supplemented with GlutaMAX) and hepatocyte thawing medium were placed in a 37° C. water bath and allowed warming for at least 15 minutes prior to use. A vial of cryopreserved hepatocytes was transferred from storage, ensuring that vials remained at cryogenic temperatures until thawing process ensued. Cells were thawed by placing the vial in a 37° C. water bath and gently shaking the vials for 2 minutes. […] Using an AO/PI Staining, cells were counted and the viable cell density was determined. Cells with poor viability (<75% viability) were determined to be not acceptable for use. […]
Data Analysis: All calculations were carried out using Microsoft Excel. Peak areas were determined from extracted ion chromatograms. In vitro half-life (t1/2) of parent compound was determined by regression analysis of the percent parent disappearance vs. time curve.
The in vitro half-life (in vitro t1/2) was determined from the slope value: […]

Compound	IC50 (AHR) [nM]	CLint scaled at 1 µM [1] [mL/min/kg]
CN(C)c1ccccc1-c1ccc2nc(NC(=O)c3ccnn3C)sc2n1 [Product 18, N-(5-(2-(dimethylamino)phenyl)thiazolo[5,4-b]pyridin-2-yl)-1-methyl-1H-pyrazole-5-carboxamide]	< 100	
COc1ccccc1-c1ccc2nc(NC(=O)c3ccnn3C)sc2n1 [Product 25, N-(5-(2-methoxyphenyl)thiazolo[5,4-b]pyridin-2-yl)-1-methyl-1H-pyrazole-5-carboxamide]	< 100	> 50
Cn1ncnc1C(=O)Nc1cnc2cc(-c3cc(F)ccc3C(F)F)[nH]c2c1 [Product 47]	< 100	
Cc1ccccc1-c1ccc2nc(NC(=O)c3ccnn3C)sc2n1 [Product 15, 1-Methyl-N-(5-(o-tolyl)thiazolo[5,4-b]pyridin-2-yl)-1H-pyrazole-5-carboxamide]	< 100	> 50
Cc1ccccc1-c1ccc2nc(NC(=O)N3CCOCC3)sc2n1 [Product 39, N-(5-(o-tolyl)thiazolo[5,4-b]pyridin-2-yl)morpholine-4-carboxamide]	< 100	

More lines, now with the values ahead:

IC50 (AHR) [nM]	CLint scaled at 1 µM [1] [mL/min/kg]	Compound
< 100		Cc1ccccc1-c1ccc2nc(NC(=O)c3ccccn3)sc2n1 [Product 8, N-(5-(o-tolyl)thiazolo[5,4-b]pyridin-2-yl)picolinamide]
< 100		COc1ccccc1-c1ccc2nc(NC(=O)c3ccccn3)sc2n1 [Product 12, N-(5-(2-methoxyphenyl)thiazolo[5,4-b]pyridin-2-yl)picolinamide]
